According to patent EP1935887A1, “Heterocyclic substituted carbonyl derivatives and their use as dopamine D3 receptor ligands” (Aventis Pharmaceuticals Inc., priority 2001, dated 2002):

Target: T1, Cloned Human Dopamine D3 Receptors (Homo sapiens, UniProt P35462)
T1 construct: expressed in transfected cells; membrane homogenate
Experiment: [N-Methyl-3H]Spiroperidol binding to cloned human dopamine D3 receptors
Settings: D3 Ki (nM)
From the text: [N-Methyl-^3H]Spiroperidol Binding to Cloned Human Dopamine D3 Receptors
This assay measures the in vitro activity of compounds on cloned human dopamine (D3) receptors and predicts the direct dopamine-blocking properties of putative neuropsychiatric agents at human dopamine D3 receptors.
The D3 gene was isolated from a human striatal cDNA library (Stratagene). The gene was sequenced and sub-cloned into the expression vector RC/RSV (Invitrogen). CHO (Chinese Hamster Ovary) cells were stably transfected with 10 µg of the D3/RSV plasmid using the DOTAP method from Boehringer Mannheim and 72 clones that were G418 resistant were isolated. Using mRNA and binding displacement data a single high expressing clone was identified. This clone was then grown in large batches for the purpose of developing a 96 well format assay.
• 1. One plate (10 cm) with approximately 2-3 million D3 cells per plate is incubated with 1 ml of Trypsin-EDTA at room temperature for -2 min or until cells have lifted off plates. Four ml of Ham's F12 + 10% Fetal Bovine Serum + 1% Penicillin/Streptomycin + G418 (400 µg/ml) medium are added to resuspend cells and 1 ml of this is added to each large plate (15 cm) containing 19 ml of the same medium as mentioned above. • 2. The 5 large plates are incubated at 37°C + 5% CO2 for - 3 days or until the cells are confluent. • 3. After these plates are confluent, they are split into 10 large plates. Medium is aspirated off, 2 ml of Trypsin-EDTA are added to each plate and plates are incubated at RT for 2 min or until cells have lifted off the plate. Eight ml of the F12 medium (same medium as #1 above) are added to each plate (10 ml total) to resuspend the cells and 5 ml are transferred to the 2 new plates containing 15 ml of the F12 media. • 4. The 10 large plates are incubated at 37°C + 5% CO2 for ∼ 2 days or until the cells are confluent. • 5. The 10 large plates are split into 60 large plates (using Trypsin-EDTA as #3 except 4 ml of F12 medium are added to resuspend cells and 1 ml is aliquoted to 6 new plates containing 19 ml of F12 medium each). • 6. Plates are incubated at 37°C + 5% CO2 for - 3 days or until cell are confluent. • 7. The 60 large plates are then split into 60 roller bottles (100-150 million cells/bottle). Medium is aspirated off , 2 ml of Trypsin-EDTA are added to each plate and incubated at RT for -2 minutes or until cells have lifted off plates. Eight ml of F12 medium are added to each plate to resuspend cells and the entire 10 ml are added to 1 roller bottle containing 90 ml of the F12 medium. • 8. The 60 roller bottles are immediately placed on their sides and transferred to the roller bottle incubator. They are incubated at 37°C + 5% CO2 for ~ 3-5 days. Cells are spun at 30-40% motor speed in the Forma incubator. • 9. Medium is poured off and cells are washed 2X in PBS. • 10. Cells are then scraped off in 20 ml of PBS and the bottles are rinsed again with 5 ml of PBS to remove any remaining cells. Cells are stored on ice before membrane prepration. • 11. The yield for 60 D3 roller bottles has varied from - 260-500 mg. Note: All tissue culture reagents are from Gibco-BRL.
The cells are harvested into 250 ml centrifuge tubes with 100 volumes of cold phosphate buffered saline (PBS) and spun down (1200xG for 10 min at 4°C). The medium is removed and 100 ml PBS are added to each centrifuge tube, cells are resuspened and spun down again. The PBS is removed and the final pellet is homogenized in an appropriate volume of 10% DMSO with a polytron on ice at a medium setting.
A 200 µl sample membrane homogenate is added to 200 µl of 1% SDS, vortexed and allowed to stand for 5 min. Aliquots (25, 50 and 100 µl) of this mixture are assayed in duplicate following the standard Bio-Rad DC protein assay protocol (kit catalog number 500-0112) and using reagent S. Absorbance readings are made at 750 nm (note: the most accurate protein OD readings are between 0.1-0.5 units). […]

T1 sequence (P35462 whole entry): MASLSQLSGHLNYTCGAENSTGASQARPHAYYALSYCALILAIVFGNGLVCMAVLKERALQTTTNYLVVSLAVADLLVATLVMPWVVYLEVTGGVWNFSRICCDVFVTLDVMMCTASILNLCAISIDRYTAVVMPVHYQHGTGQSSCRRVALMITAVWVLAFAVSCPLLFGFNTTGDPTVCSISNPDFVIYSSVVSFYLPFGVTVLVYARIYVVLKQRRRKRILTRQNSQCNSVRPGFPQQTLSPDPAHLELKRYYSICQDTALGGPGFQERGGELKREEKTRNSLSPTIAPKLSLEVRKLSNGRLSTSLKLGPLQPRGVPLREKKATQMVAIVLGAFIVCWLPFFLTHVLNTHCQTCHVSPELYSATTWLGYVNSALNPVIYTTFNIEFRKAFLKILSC

| Structure (SMILES) | Ki [nM] |
| --- | --- |
| O=C(NC1CCN(Cc2cccc(F)c2)CC1)[C@@H]1C[C@H]1CN1CCC(c2noc3ccsc23)CC1 [compound 832727] | 1.19 |
| O=C(NC1CCN(CC2CCCCC2)CC1)C1CC1CN1CCC(c2noc3ccsc23)CC1 (stereo not drawn) [compound 831823] | 2.37 |

Same assay, conditions: Table 2; unit inferred; read-out: d3Ki

| Structure (SMILES) | Ki [nM] |
| --- | --- |
| CC(C)(C)c1ccc(NC(=O)CCCCN2CCN(c3csc4cc(F)ccc34)CC2)cc1 [compound 822136] | 207 |
| CC1CCCC(NC(=O)CCCN2CCN(c3csc4cc(F)ccc34)CC2CCCc2ccccc2)C1 (stereo not drawn) [compound 827108] | 302 |
| CCC1CCC(NC(=O)C2CC2CN2CCN(c3cc(Cl)ccc3OC)CC2)CC1 (stereo not drawn) [compound 817042] | 0.615 |
| COc1ccc(N(C)C(=O)CCCCN2CCN(c3csc4cc(F)ccc34)CC2)cc1 [compound 822131] | 61 |
| CCCc1cc(N2CCCN(C[C@@H]3C[C@H]3C(=O)N[C@H]3CC[C@H](CC)CC3)CC2)nc(C(C)(C)C)n1 [compound 817272] | 1.72 |
| CN(C(=O)CCCCN1CCN(c2csc3cc(F)ccc23)CC1)c1ccc(Cl)cc1 [compound 822133] | 17 |

Now from value to compound:

| Ki [nM] | Structure (SMILES) |
| --- | --- |
| 73.8 | C[C@@]1(C(=O)NC2CC2)C[C@H]1CN1CCN(c2csc3cc(C(F)(F)F)ccc23)CC1 [compound 825893] |
| 27.4 | CC[C@H]1CC[C@H](NC(=O)CCCN2CCCN(c3csc4cc(F)ccc34)CC2)CC1 [compound 826826] |
| 1.06 | C[C@H]1CC[C@H](NC(=O)[C@@H]2C[C@H]2CN2CCN(c3cccc4[nH]ccc34)CC2)CC1 [compound 817098] |
| 8.1 | O=C(NC1CC1)[C@@H]1C[C@H]1CN1CCN(c2csc3cc(C(F)(F)F)ccc23)CC1 [compound 822202] |
| 137 | CC1C(CN2CCN(c3csc4cc(C(F)(F)F)ccc34)CC2)C1C(=O)NCc1ccc(N(C)C)cc1 (stereo not drawn) [compound 825871] |
| 39.5 | CC1CCCC(NC(=O)CCCN2CCCN(c3csc4cc(F)ccc34)CC2)C1 (stereo not drawn) [compound 826827] |
| 74.9 | CCOC(=O)[C@H]1CC[C@H](NC(=O)CCCN2CCCN(c3csc4cc(F)ccc34)CC2)CC1 [compound 826825] |
| 14.8 | CC1CCC(NC(=O)C2CC2CN2CCN(c3ccc(C(F)(F)F)cc3)CC2)CC1 (stereo not drawn) [compound 817039] |

Same assay, conditions: Table 2 part the 10th table; read-out: d3Ki

| Ki [nM] | Structure (SMILES) |
| --- | --- |
| 58.5 | CC1(C)CCCN(C(=O)[C@@H]2C[C@H]2CN2CCN(c3csc4cc(C(F)(F)F)ccc34)CC2)C1 [compound 826912] |
| 168 | CC1CCN(C(=O)CCCN2CCN(c3csc4cc(C(F)(F)F)ccc34)CC2Cc2ccccc2)CC1 (stereo not drawn) [compound 827065] |
| 3.66 | CC1CCCN1C(=O)CCCN1CCCN(c2csc3cc(F)ccc23)CC1 (stereo not drawn) [compound 826842] |
| 39.4 | NC(=O)C1CCCN(C(=O)[C@@H]2C[C@H]2CN2CCN(c3csc4cc(C(F)(F)F)ccc34)CC2)C1 (stereo partly drawn) [compound 826904] |
| 4.72 | CC1(C)CCCN(C(=O)[C@@H]2C[C@H]2CN2CCCN(c3csc4cc(F)ccc34)CC2)C1 [compound 826877] |
| 34.6 | CC1CCCCN1C(=O)CCCN1CCN(c2csc3cc(F)ccc23)CC1Cc1ccccc1 (stereo not drawn) [compound 827094] |
| 0.24 | O=C([C@@H]1C[C@H]1CN1CCN(c2csc3cc(F)ccc23)CC1)N1CCCC1 [compound 826669] |
| 141 | COC[C@H]1CCCN1C(=O)[C@@H]1C[C@H]1CN1CCN(c2csc3cc(C(F)(F)F)ccc23)CC1 [compound 826923] |
| 69 | O=C([C@@H]1C[C@H]1CN1CCN(c2csc3cc(C(F)(F)F)ccc23)CC1)N1CCC(Cc2ccccc2)CC1 [compound 826662] |
| 140 | CCOC(=O)C1CN(C(=O)[C@@H]2C[C@H]2CN2CCN(c3csc4cc(C(F)(F)F)ccc34)CC2)CCC1=O (stereo partly drawn) [compound 826659] |

Same assay, conditions: read-out: D3 Ki

| Structure (SMILES) | Ki [nM] |
| --- | --- |
| O=C(C1CC1CN1CCC(c2noc3ccsc23)CC1)N1CCN(CCC2CCCCC2)CC1 (stereo not drawn) [compound 832058] | 24.2 |
| O=C(NCCCN1CCCCC1)[C@@H]1C[C@H]1CN1CCC(c2nn(CC(F)(F)F)c3ccsc23)CC1 [A002328969] | 137 |
| COc1ccc2c(CCNC(=O)[C@@H]3C[C@H]3CN3CCC(c4noc5ccsc45)CC3)c[nH]c2c1 [compound 831276] | 3.85 |
| CCC1CCC(NC(=O)C2CC2CN2CCCN(c3ccc4c(C#N)n[nH]c4n3)CC2)CC1 (stereo not drawn) [compound 830122] | 67.6 |
| Cn1nc(N2CCN(C[C@@H]3C[C@H]3C(=O)NCCCn3ccnc3)CC2)c2ccccc21 [compound 833822] | 0.64 |
| O=C(NC1CCN(Cc2ccc(F)c(F)c2)CC1)[C@@H]1C[C@H]1CN1CCC(c2noc3ccsc23)CC1 [compound 833165] | 1.07 |
| O=C(NCCCN1CCOCC1)[C@@H]1C[C@H]1CN1CCC(c2noc3c(C(F)(F)F)cccc23)CC1 [compound 832273] | 205 |

More lines, now with the values ahead:

| Ki [nM] | Structure (SMILES) |
| --- | --- |
| 9.85 | O=C(NC1CCN(CC2CC2)CC1)[C@@H]1C[C@H]1CN1CCN(c2csc3cc(C(F)(F)F)ccc23)CC1 [compound 832734] |
| 95.8 | COc1ccc2c(c1)c(N1CCN(C[C@@H]3C[C@H]3C(=O)N3CCC(CCN4CCCC4)CC3)CC1)nn2C [compound 833628] |

Same assay, conditions: read-out: d3Ki

| Structure (SMILES) | Ki [nM] |
| --- | --- |
| CC[C@H]1CC[C@H](NC(=O)[C@@H]2C[C@H]2CN2CCN(c3ncccn3)CC2)CC1 [compound 827236] | 12.9 |
| Cc1cccc(C)c1N1CCN(C[C@@H]2C[C@H]2C(=O)N[C@H]2CC[C@H](C)CC2)CC1 [compound 827200] | 119 |
| CCOc1ccccc1N1CCN(C[C@@H]2C[C@H]2C(=O)N[C@H]2CC[C@H](CC)CC2)CC1 [compound 827215] | 0.229 |
| CC[C@H]1CC[C@H](NC(=O)[C@@H]2C[C@H]2CN2CCN(c3ccc(OC)cc3)CC2)CC1 [compound 827233] | 27.7 |
| C[C@H]1CC[C@H](NC(=O)[C@@H]2C[C@H]2CN2CCN(c3cccc(Cl)c3)CC2)CC1 [compound 827173] | 2.78 |

Results, then the compound that gave them:

| Ki [nM] | Structure (SMILES) |
| --- | --- |
| 48.8 | O=C([C@@H]1C[C@H]1CN1CCN(c2csc3cc(C(F)(F)F)ccc23)CC1)N(CCO)C1CCCCC1 [compound 826895] |
| 2.3 | O=C(NC1CCCCC1)[C@@H]1C[C@H]1CN1CCN(c2csc3cc(F)ccc23)CC1 [compound 826677] |
| 690 | O=C(NC1CC1)[C@@H]1CCCC[C@@H]1CN1CCN(c2csc3cc(C(F)(F)F)ccc23)CC1 [compound 826105] |
| 54.8 | O=C(NC1CC1)[C@@H]1CCC[C@H]1N1CCN(c2csc3cc(F)ccc23)CC1 [compound 825827] |
| 1 | C[C@H]1CC[C@H](NC(=O)[C@@H]2C[C@H]2CN2CCN(c3ccccc3Cl)CC2)CC1 [compound 827177] |
| 59.9 | COc1cc(CNC(=O)[C@@H]2CCCC[C@@H]2CN2CCN(c3csc4cc(C(F)(F)F)ccc34)CC2)cc(OC)c1OC [compound 826116] |
| 263 | CC(C)[C@@H]1CC[C@@H](C)C[C@H]1NC(=O)[C@@H]1C[C@H]1CN1CCN(c2csc3cc(C(F)(F)F)ccc23)CC1 [compound 826891] |
| 241 | O=C(NCCc1ccccn1)[C@@H]1CCCC[C@@H]1CN1CCN(c2csc3cc(C(F)(F)F)ccc23)CC1 [compound 826117] |
| 1.46 | Cc1ccccc1N1CCN(CC2CC2C(=O)NC2CCC(C)CC2)CC1 (stereo not drawn) [compound 817478] |
| 6.9 | O=C(NCc1cccnc1)[C@@H]1CCC[C@H]1N1CCN(c2csc3cc(F)ccc23)CC1 [825834G] |

Same assay, conditions: the 16th table; read-out: D3 Ki

| Ki [nM] | Structure (SMILES) |
| --- | --- |
| 6.93 | O=C(NCCCn1ccnc1)C1(CCN2CCN(c3csc4cc(C(F)(F)F)ccc34)CC2)CC1 [compound 832231, 1-{2-[4-(6-Trifluoromethyl-benzo[b]thiophen-3-yl)-piperazin-1-yl]-ethyl}-cyclopropanecarboxylic acid (3-imidazol-1-yl-propyl)-amide] |
